Data published in patent US10183914B2 (BAYER CROPSCIENCE AKTIENGESELLSCHAFT, priority 2014, dated 2019).

Columns and labels:
[1] = logp (HCOOH), physicochemical characterization
Oryza sativa [2] = experiment: Pre-emergence herbicidal effect and crop plant compatibility; assay type: in vivo; settings: 3 weeks
Excerpt: (§1) Seeds of monocotyledonous and dicotyledonous weed plants and crop plants are laid out in wood-fiber pots in sandy loam and covered with soil. The compounds of the invention, formulated in the form of wettable powders (WP) or as emulsion concentrates (EC), are then applied to the surface of the covering soil as aqueous suspension or emulsion at a water application rate equating to 600 to 800 L/ha with addition of 0.2% wetting agent.
(§2) After the treatment, the pots are placed in a greenhouse and kept under good growth conditions for the trial plants. The damage to the trial plants is scored visually after a trial duration of 3 weeks by comparison with untreated controls (herbicidal activity in percent (%): 100% efficacy=the plants have died, 0% efficacy=like control plants).

[3] = system: Triticum aestivum (spring); experiment: as above; assay type: in vivo; settings: 3 weeks
Excerpt: as §1, §2

Zea mays [4] = experiment: as above; assay type: in vivo; settings: 3 weeks
Excerpt: as §1, §2

Amaranthus retroflexus = experiment: Pre-emergence herbicidal effect; assay type: in vivo; settings: 3 weeks
Excerpt: as §1, §2

Avena fatua = experiment: Pre-emergence herbicidal effect; assay type: in vivo; settings: 1280 g/ha, 3 weeks
Excerpt: as §1, §2

Echinochloa crus-galli [5] = experiment: Pre-emergence herbicidal effect; assay type: in vivo; settings: 3 weeks
Excerpt: as §1, §2

Matricaria inodora = experiment: Pre-emergence herbicidal effect; assay type: in vivo; settings: 3 weeks
Excerpt: as §1, §2

Polygonum convolvulus = experiment: Pre-emergence herbicidal effect; assay type: in vivo; settings: 3 weeks
Excerpt: as §1, §2

Stellaria media = experiment: Pre-emergence herbicidal effect; assay type: in vivo; settings: 3 weeks
Excerpt: as §1, §2

Veronica persica = experiment: Pre-emergence herbicidal effect; assay type: in vivo; settings: 3 weeks
Excerpt: as §1, §2

Viola tricolor = experiment: Pre-emergence herbicidal effect; assay type: in vivo; settings: 3 weeks
Excerpt: as §1, §2

Oryza sativa [6] = experiment: Post-emergence herbicidal effect and crop plant compatibility; assay type: in vivo; settings: visual scoring after about 3 weeks
Procedure: (§3) Seeds of monocotyledonous and dicotyledonous weed and crop plants are laid out in sandy loam in wood-fiber pots, covered with soil and cultivated in a greenhouse under good growth conditions. 2 to 3 weeks after sowing, the test plants are treated at the one-leaf stage. The compounds of the invention, formulated in the form of wettable powders (WP) or as emulsion concentrates (EC), are then sprayed onto the green parts of the plants as aqueous suspension or emulsion at a water application rate equating to 600 to 800 L/ha with addition of 0.2% wetting agent. After the trial plants have been left to stand in a greenhouse under optimal growth conditions for about 3 weeks, the efficacy of the formulations is scored visually in comparison to untreated controls (herbicidal action in percent (%): 100% efficacy=the plants have died, 0% efficacy=like control plants).

[7] = system: Triticum aestivum (spring); experiment: as above; assay type: in vivo; settings: visual scoring after about 3 weeks
Procedure: as §3

Zea mays [8] = experiment: as above; assay type: in vivo; settings: visual scoring after about 3 weeks
Procedure: as §3

Setaria viridis = experiment: Pre-emergence herbicidal effect; assay type: in vivo; settings: 3 weeks
Excerpt: as §1, §2

Ipomoea purpurea = experiment: Post-emergence herbicidal effect; assay type: in vivo; settings: 320 g/ha (dose by row order of upper half), scoring after about 3 weeks
Procedure: as §3

Alopecurus myosuroides = experiment: Pre-emergence herbicidal effect; assay type: in vivo; settings: 3 weeks
Excerpt: as §1, §2

Lolium multiflorum = experiment: Pre-emergence herbicidal effect; assay type: in vivo; settings: 320 g/ha, 3 weeks
Excerpt: as §1, §2

Echinochloa crus-galli [9] = experiment: Post-emergence herbicidal effect; assay type: in vivo; settings: 320 g/ha, visual scoring after about 3 weeks
Procedure: as §3

| SMILES | ORYSA herbicidal activity in percent (Oryza sativa [2]; 320 g/ha) [%] | TRZAS herbicidal activity in percent ([3]; 320 g/ha) [%] | ZEAMX herbicidal activity in percent (Zea mays [4]; 320 g/ha) [%] | AMARE herbicidal activity in percent (Amaranthus retroflexus; 320 g/ha) [%] | MATIN herbicidal activity in percent (Matricaria inodora; 320 g/ha) [%] | STEME herbicidal activity in percent (Stellaria media; 320 g/ha) [%] | VERPE herbicidal activity in percent (Veronica persica; 320 g/ha) [%] | ORYSA herbicidal activity in percent (Oryza sativa [2]; 80 g/ha) [%] | TRZAS herbicidal activity in percent ([3]; 80 g/ha) [%] | ZEAMX herbicidal activity in percent (Zea mays [4]; 80 g/ha) [%] | AMARE herbicidal activity in percent (Amaranthus retroflexus; 80 g/ha) [%] | MATIN herbicidal activity in percent (Matricaria inodora; 80 g/ha) [%] | VERPE herbicidal activity in percent (Veronica persica; 80 g/ha) [%] | VIOTR herbicidal activity in percent (Viola tricolor; 320 g/ha) [%] | post-emergence efficacy ORYSA (Oryza sativa [6]; 80 g/ha) [%] | post-emergence efficacy ORYSA (Oryza sativa [6]; 320 g/ha) [%] | post-emergence efficacy TRZAS ([7]; 80 g/ha) [%] | post-emergence efficacy ZEAMX (Zea mays [8]; 80 g/ha) [%] | post-emergence efficacy ZEAMX (Zea mays [8]; 320 g/ha) [%] | SETVI herbicidal activity in percent (Setaria viridis; 320 g/ha) [%] | also measured |
| --- | --- | --- | --- | --- | --- | --- | --- | --- | --- | --- | --- | --- | --- | --- | --- | --- | --- | --- | --- | --- | --- |
| CC(=O)c1cnc(N[C@@H]2CCc3c(F)cccc32)nc1 [1.90] | 20 | 0 | 20 | 90 | 100 | 80 | 100 |  |  |  |  |  |  |  |  |  |  |  |  |  | logp (HCOOH) [1]: solid; m.p.: 111.5° C.; logp (HCOOH): 2.43; 1H-NMR (CDCl3, 400 MHZ, δ in ppm:; ORYSA herbicidal activity in percent (Oryza sativa [2]; 1280 g/ha): 20%; TRZAS herbicidal activity in percent ([3]; 1280 g/ha): 0%; ZEAMX herbicidal activity in percent (Zea mays [4]; 1280 g/ha): 20%; AMARE herbicidal activity in percent (Amaranthus retroflexus; 1280 g/ha): 100%; AVEFA herbicidal activity in percent (Avena fatua): 100%; ECHCG herbicidal activity in percent (Echinochloa crus-galli [5]; 1280 g/ha): 80%; MATIN herbicidal activity in percent (Matricaria inodora; 1280 g/ha): 100%; POLCO herbicidal activity in percent (Polygonum convolvulus; 1280 g/ha): 90%; STEME herbicidal activity in percent (Stellaria media; 1280 g/ha): 100%; VERPE herbicidal activity in percent (Veronica persica; 1280 g/ha): 100%; VIOTR herbicidal activity in percent (Viola tricolor; 1280 g/ha): 100% |
| CC(=O)c1cnc(N[C@@H]2CCCc3cc(F)ccc32)nc1C [1.88] |  | 0 | 0 | 100 | 100 | 100 | 100 | 0 | 0 | 0 | 80 | 100 | 100 | 90 | 0 | 0 | 0 | 0 | 10 |  | post-emergence efficacy TRZAS ([7]; 320 g/ha): 20% |
| O=C1CC(c2ccc(F)cc2)Cc2nc(N[C@@H]3CCCc4ccccc43)ncc21 (some centres unmarked) [2.92] | 20 | 20 | 20 | 100 | 90 | 100 | 100 | 0 | 0 | 0 | 80 |  | 100 | 100 | 0 | 0 | 0 | 0 | 0 | 100 | logp (HCOOH) [1]: oily; logp (HCOOH): 4.05; 1H-NMR (CDCl3, 400 MHZ, δ in ppm): 1.95 (m, 3H, 2H; ECHCG herbicidal activity in percent (Echinochloa crus-galli [5]; 320 g/ha): 100%; STEME herbicidal activity in percent (Stellaria media; 80 g/ha): 100%; VIOTR herbicidal activity in percent (Viola tricolor; 80 g/ha): 90%; post-emergence efficacy TRZAS ([7]; 320 g/ha): 10% |
| CC1(C)CC(=O)c2cnc(N[C@@H]3CCCc4ccccc43)nc2C1 [2.25, 7,7-dimethyl-2-[(1R)-1,2,3,4-tetrahydronaphthalen-1-ylamino]-7,8-dihydroquinazolin-5(6H)-one] | 0 |  | 0 | 100 | 100 | 100 | 100 | 0 | 0 | 0 | 90 | 90 | 100 | 100 | 0 | 0 | 10 | 0 | 0 | 100 | chromatographic logP ([1]; HCOOH (formic acid)): 3.71; ECHCG herbicidal activity in percent (Echinochloa crus-galli [5]; 320 g/ha): 100%; POLCO herbicidal activity in percent (Polygonum convolvulus; 320 g/ha): 100%; STEME herbicidal activity in percent (Stellaria media; 80 g/ha): 100%; VIOTR herbicidal activity in percent (Viola tricolor; 80 g/ha): 100%; post-emergence efficacy TRZAS ([7]; 320 g/ha): 20%; post-emergence efficacy PHBPU (Ipomoea purpurea): 90% |
| CC(C)C1CC(=O)c2cnc(N[C@@H]3CCCc4ccccc43)nc2C1 (some centres unmarked) [2.102] | 0 | 0 | 0 | 100 | 100 | 100 | 100 | 0 | 0 | 0 | 80 | 90 | 100 | 100 | 0 | 0 | 20 | 0 | 0 | 100 | ALOMY herbicidal activity in percent (Alopecurus myosuroides; 320 g/ha): 100%; ECHCG herbicidal activity in percent (Echinochloa crus-galli [5]; 320 g/ha): 100%; LOLMU herbicidal activity in percent (Lolium multiflorum): 100%; POLCO herbicidal activity in percent (Polygonum convolvulus; 320 g/ha): 90%; SETVI herbicidal activity in percent (Setaria viridis; 80 g/ha): 100%; STEME herbicidal activity in percent (Stellaria media; 80 g/ha): 100%; VIOTR herbicidal activity in percent (Viola tricolor; 80 g/ha): 100%; post-emergence efficacy ECHCG (Echinochloa crus-galli [9]): 100% |
| CC(=O)c1cnc(NC2CCOc3c(C)cccc32)nc1 (racemic) [1.8] |  | 0 | 0 | 100 | 100 |  | 100 |  | 0 | 0 | 100 |  |  | 100 |  |  |  |  |  | 80 | ALOMY herbicidal activity in percent (Alopecurus myosuroides; 80 g/ha): 0%; ALOMY herbicidal activity in percent (Alopecurus myosuroides; 320 g/ha): 0%; ECHCG herbicidal activity in percent (Echinochloa crus-galli [5]; 320 g/ha): 90% |
| Cc1ccc2c(c1)[C@H](Nc1ncc3c(n1)CC(C(C)C)CC3=O)[C@@H](C)C2 (some centres unmarked) [2.104] | 20 |  | 0 | 100 | 100 | 100 | 100 | 20 | 0 | 0 |  | 80 | 100 | 100 | 0 | 0 | 0 | 0 | 0 | 100 | LOLMU herbicidal activity in percent (Lolium multiflorum): 90%; POLCO herbicidal activity in percent (Polygonum convolvulus; 320 g/ha): 100%; STEME herbicidal activity in percent (Stellaria media; 80 g/ha): 100%; VIOTR herbicidal activity in percent (Viola tricolor; 80 g/ha): 90%; post-emergence efficacy TRZAS ([7]; 320 g/ha): 0% |
